Active and inactive are the calls of the source.
What was measured:
[1] = target: T1, Sentrin-specific protease 8 (Homo sapiens, UniProt Q96LD8); format: functional
T1 sequence (Q96LD8 whole entry): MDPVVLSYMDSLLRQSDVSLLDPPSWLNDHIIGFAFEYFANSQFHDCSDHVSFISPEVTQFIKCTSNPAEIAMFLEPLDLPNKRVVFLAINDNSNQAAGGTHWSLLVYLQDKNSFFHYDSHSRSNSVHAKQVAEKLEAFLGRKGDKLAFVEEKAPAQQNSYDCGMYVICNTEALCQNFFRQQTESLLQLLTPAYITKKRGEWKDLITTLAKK

[2] = target: T2, Apoptotic protease-activating factor 1 (Homo sapiens, UniProt O14727); format: functional;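 for EC50 Mean: caspase-3 cleavage of fluorogenic Rh110 DEVD substrate downstream of apoptosome activation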
T2 sequence (O14727 whole entry): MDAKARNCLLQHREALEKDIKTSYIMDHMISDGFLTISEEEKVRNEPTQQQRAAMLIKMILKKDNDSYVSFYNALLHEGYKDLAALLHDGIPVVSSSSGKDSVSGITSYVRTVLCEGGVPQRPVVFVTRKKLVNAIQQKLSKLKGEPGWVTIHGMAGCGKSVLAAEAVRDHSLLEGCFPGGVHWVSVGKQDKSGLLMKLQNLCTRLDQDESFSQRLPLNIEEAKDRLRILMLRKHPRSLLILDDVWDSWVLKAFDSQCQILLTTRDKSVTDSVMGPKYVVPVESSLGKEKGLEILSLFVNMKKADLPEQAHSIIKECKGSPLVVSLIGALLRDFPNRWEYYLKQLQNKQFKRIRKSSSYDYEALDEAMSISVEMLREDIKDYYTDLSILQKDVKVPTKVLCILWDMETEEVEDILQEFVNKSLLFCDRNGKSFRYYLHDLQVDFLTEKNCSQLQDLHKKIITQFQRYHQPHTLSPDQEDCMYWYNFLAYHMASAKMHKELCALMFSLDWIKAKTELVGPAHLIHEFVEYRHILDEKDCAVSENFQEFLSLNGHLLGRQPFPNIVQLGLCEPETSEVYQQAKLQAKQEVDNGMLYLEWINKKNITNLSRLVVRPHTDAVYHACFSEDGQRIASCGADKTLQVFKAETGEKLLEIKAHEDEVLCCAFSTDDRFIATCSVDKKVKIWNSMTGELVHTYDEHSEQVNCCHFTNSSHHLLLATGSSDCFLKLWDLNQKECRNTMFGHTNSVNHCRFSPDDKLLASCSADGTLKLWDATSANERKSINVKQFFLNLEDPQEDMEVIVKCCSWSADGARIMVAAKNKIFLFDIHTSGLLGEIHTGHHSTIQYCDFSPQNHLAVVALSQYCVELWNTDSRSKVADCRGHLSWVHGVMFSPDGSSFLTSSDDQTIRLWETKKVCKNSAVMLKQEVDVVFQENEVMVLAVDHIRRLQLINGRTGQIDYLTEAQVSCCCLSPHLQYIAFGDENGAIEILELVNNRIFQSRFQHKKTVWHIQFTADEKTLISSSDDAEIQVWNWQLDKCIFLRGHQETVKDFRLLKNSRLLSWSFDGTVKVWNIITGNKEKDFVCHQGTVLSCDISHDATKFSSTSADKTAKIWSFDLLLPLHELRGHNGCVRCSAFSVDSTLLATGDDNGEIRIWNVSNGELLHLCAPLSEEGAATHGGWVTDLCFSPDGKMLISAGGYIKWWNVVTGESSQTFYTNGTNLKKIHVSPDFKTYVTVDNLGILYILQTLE

[3] = A549 cell cytotoxicity, dose response, cytotoxicity control, plate reader, cherry-pick, antagonist series (AID 743412); format: functional, cell-based
[4] = HepG2 cell cytotoxicity, dose response, cytotoxicity control, plate reader, cherry-pick, antagonist series (AID 743416); format: functional, cell-based
[5] = HEK293 cell cytotoxicity, dose response, cytotoxicity control, plate reader, cherry-picked samples (AID 743446); format: functional, cell-based
[6] = target: T1, Sentrin-specific protease 8; format: functional; remark: listed apart in the source
INS1 = assay: beta cell apoptosis inhibitors, cytokine rescue, dose response, luminescence, retest (AID 449756); format: functional, cell-based; conditions: Rattus norvegicus;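 note: cell death triggered by IL-1 beta plus TNF-alpha plus IFN-gamma mixture; protective hits raise ATP signal compared with cytokine alone wells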
Beta-galactosidase = Beta-galactosidase (Escherichia coli, UniProt Q8VNN2); assay: Dose response counterscreen for EBI2 assay utilizing the enzyme, b-galactosidase.; format: functional
Chain of Beta-galactosidase (Q8VNN2 whole entry): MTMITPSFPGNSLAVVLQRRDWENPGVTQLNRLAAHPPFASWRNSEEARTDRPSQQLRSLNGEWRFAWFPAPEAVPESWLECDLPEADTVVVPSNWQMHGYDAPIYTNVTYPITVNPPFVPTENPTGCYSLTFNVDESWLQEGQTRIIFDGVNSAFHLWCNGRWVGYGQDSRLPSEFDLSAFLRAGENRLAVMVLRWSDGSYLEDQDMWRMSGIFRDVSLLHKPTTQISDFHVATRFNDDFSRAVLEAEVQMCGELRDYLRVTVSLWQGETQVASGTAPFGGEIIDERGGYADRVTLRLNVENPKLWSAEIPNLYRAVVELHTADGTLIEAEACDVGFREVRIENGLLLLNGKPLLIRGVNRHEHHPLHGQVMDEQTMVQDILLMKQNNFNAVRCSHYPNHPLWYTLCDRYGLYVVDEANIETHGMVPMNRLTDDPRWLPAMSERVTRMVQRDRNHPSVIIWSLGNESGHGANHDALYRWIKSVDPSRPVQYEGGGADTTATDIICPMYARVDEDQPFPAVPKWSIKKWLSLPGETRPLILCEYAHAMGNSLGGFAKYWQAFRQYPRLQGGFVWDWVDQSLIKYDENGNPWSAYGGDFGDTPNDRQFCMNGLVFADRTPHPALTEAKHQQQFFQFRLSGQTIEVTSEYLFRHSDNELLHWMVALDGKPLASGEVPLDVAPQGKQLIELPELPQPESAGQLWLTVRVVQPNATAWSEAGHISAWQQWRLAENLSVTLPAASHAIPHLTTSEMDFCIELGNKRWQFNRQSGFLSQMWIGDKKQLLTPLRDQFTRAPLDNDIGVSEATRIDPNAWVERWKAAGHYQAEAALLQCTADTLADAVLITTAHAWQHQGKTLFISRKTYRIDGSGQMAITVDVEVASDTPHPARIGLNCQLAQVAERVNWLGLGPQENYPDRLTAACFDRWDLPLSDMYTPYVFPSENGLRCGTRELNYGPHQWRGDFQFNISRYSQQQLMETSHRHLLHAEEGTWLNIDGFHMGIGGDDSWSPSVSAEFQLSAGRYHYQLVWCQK

[7] = target: T2, Apoptotic protease-activating factor 1; assay: SAR analysis of small molecule Activators of Apaf-1 in a Fluorescent assay.; format: functional; conditions: read-out: EC50_Mean
[8] = AlphaScreen signal interference compounds, dose response, artefact control for ARNT-TACC3 interaction inhibitor project, biochemical, luminescence, cherry-pick (AID 651705); format: functional;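 note: AlphaScreen bead proximity signal that flags compounds interfering with the detection technology; potency reflects signal decrease which marks the compound as an assay artifact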
Streptokinase A = target: T3, Streptokinase A (Streptococcus pyogenes serotype M1, UniProt P10520); assay: S. pyogenes streptokinase expression inhibitors, potency, dose response, plasminogen activation absorbance, OD405 (AID 1914); format: functional, Streptococcus pyogenes M1 GAS;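 note: secreted streptokinase activity via plasminogen activation per viability signal from cell pellet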
T3 sequence (P10520 whole entry): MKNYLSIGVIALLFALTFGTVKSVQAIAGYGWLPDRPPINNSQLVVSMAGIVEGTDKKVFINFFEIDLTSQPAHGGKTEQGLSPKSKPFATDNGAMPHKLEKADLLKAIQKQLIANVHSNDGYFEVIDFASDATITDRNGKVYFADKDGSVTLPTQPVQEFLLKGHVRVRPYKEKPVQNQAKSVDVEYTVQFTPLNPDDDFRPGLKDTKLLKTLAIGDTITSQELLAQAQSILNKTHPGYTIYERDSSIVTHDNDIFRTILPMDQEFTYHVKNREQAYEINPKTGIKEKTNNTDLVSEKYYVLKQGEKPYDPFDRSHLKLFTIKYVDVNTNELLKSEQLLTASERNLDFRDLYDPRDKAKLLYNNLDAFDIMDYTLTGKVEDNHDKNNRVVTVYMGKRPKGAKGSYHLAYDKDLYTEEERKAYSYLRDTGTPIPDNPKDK

[9] = test system: Streptococcus sp. 'group A'; assay: growth inhibition of control SK(-) GAS strain, dose response, counter-screen for streptokinase expression inhibitor project, luminescence, kanamycin, BacTiterGlo, confirmation (AID 1900); format: functional, organism-based
Streptococcus = assay: Group A Streptococcus viability loss, dose response, counter-screen for streptokinase expression inhibitor project, luminescence, BacTiterGlo (AID 1915); format: functional, organism-based;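 note: potency for reduction of bacterial viability or growth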
[10] = cytotoxicity toward DRD oncogenic fibroblasts, dose response, cell-based, non-viral oncogenic, luminescence (AID 1934); format: functional; conditions: Homo sapiens
BJ [11] = assay: cytotoxicity toward Ras-transformed BJeLR fibroblasts, dose response, cell-based, alamar blue fluorescence, cherrypicked samples (AID 2631); format: functional; conditions: Homo sapiens;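 note: confirmatory dose-response assay in RAS-dependent BJ fibroblasts engineered with TERT, LT and ST, with cytotoxicity read by fluorescence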
BJ [12] = assay: cytotoxicity toward BJ-TERT fibroblasts, dose response, cell-based, RAS-independent, luminescence (AID 1933); format: functional; conditions: Homo sapiens
[13] = target: T4, Rac GTPase-activating protein 1 (Homo sapiens, UniProt Q9H0H5); assay: MgcRacGAP GTPase-activating activity inhibitors, confirmation, biochemical, ADP Hunter fluorescence, primary and confirmatory (AID 624330); format: functional
T4 sequence (Q9H0H5 whole entry): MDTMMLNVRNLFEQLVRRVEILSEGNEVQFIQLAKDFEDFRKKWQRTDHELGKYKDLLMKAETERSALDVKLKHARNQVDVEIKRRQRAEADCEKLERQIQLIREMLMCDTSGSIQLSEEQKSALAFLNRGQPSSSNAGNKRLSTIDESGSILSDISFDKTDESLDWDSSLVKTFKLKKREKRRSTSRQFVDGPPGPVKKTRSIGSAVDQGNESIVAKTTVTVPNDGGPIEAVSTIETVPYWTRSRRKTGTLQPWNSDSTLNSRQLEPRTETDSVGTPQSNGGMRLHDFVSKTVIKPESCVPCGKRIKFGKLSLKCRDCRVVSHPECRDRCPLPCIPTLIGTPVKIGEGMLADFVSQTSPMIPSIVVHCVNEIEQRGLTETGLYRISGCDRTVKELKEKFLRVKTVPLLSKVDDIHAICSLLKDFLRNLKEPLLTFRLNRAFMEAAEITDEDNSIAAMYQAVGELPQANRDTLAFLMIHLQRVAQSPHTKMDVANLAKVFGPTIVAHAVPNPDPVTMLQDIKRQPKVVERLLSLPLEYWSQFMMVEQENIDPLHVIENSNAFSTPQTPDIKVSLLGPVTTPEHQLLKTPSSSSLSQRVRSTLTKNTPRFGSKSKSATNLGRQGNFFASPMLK

BJ [14] = assay: cytotoxicity toward BJ-TERT-LT-ST fibroblasts, dose response, cell-based, RAS-independent, luminescence (AID 1935); format: functional; conditions: Homo sapiens;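 note: BJ fibroblasts immortalized with TERT plus LT and ST oncogenes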
BJ [15] = assay: cells; format: functional, cell-based; conditions: Homo sapiens
[16] = HEK293T cytotoxicity, dose response, cytotoxicity control for miR-122 modulator project, cell-based, inhibitor set, cherry-pick, set 2 (AID 720697); format: functional
[17] = miR-122 activators in hepatoma reporter cells, dose response, cell-based, Huh7 psiCHECK-miR122, Renilla luciferase, cherry-picked (AID 651956); format: functional;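 note: huh7 hepatoma cells stably carrying a psiCHECK-2 miR-122 sensor plasmid; renilla luciferase signal reporting endogenous miR-122 activity after 48 h compound exposure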
[18] = HEK293T cytotoxicity, dose response, cytotoxicity control for miR-122 modulator project, cell-based, activator set, cherry-pick (AID 720690); format: functional;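 note: HEK293T human cells scored for general mammalian cytotoxicity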
Melanocortin receptor 4 = Melanocortin receptor 4 (Homo sapiens, UniProt P32245); format: functional, cell-based;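 note: Cell-based assay with luminescence read-out, confirmatory dose-response testing for agonist activity of biased ligands at MC4R; human U2OS cells with tagged receptor and beta-arrestin; potency of agonists that increase receptor coupling to beta-arrestin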
Chain of Melanocortin receptor 4 (P32245 whole entry): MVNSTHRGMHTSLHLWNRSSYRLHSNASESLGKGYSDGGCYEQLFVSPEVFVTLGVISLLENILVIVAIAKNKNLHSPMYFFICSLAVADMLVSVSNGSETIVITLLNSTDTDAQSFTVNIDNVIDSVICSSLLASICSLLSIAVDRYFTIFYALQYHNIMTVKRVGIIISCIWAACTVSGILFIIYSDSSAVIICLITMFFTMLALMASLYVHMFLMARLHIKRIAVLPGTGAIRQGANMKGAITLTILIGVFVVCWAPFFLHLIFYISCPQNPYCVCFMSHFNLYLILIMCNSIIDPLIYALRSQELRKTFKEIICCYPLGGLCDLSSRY

[19] = target: T5, Serine/threonine-protein phosphatase (Candida dubliniensis (strain CD36 / CBS 7987 / NCPF 3949 / NRRLY-17841) (Yeast), UniProt B9W6M3); assay: calcineurin pathway inhibitors in yeast reporter, dose response, S. cerevisiae, CDRE-lacZ, luminescence, secondary (AID 2388); format: functional, cell-based;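 note: yeast reporter cells carrying a calcineurin-responsive lacZ construct stimulated with calcium chloride; luminescent beta-galactosidase reporter signal in whole cells rather than isolated phosphatase activity; potency for inhibition where a drop in reporter signal means calcineurin blockade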
T5 sequence (B9W6M3 whole entry): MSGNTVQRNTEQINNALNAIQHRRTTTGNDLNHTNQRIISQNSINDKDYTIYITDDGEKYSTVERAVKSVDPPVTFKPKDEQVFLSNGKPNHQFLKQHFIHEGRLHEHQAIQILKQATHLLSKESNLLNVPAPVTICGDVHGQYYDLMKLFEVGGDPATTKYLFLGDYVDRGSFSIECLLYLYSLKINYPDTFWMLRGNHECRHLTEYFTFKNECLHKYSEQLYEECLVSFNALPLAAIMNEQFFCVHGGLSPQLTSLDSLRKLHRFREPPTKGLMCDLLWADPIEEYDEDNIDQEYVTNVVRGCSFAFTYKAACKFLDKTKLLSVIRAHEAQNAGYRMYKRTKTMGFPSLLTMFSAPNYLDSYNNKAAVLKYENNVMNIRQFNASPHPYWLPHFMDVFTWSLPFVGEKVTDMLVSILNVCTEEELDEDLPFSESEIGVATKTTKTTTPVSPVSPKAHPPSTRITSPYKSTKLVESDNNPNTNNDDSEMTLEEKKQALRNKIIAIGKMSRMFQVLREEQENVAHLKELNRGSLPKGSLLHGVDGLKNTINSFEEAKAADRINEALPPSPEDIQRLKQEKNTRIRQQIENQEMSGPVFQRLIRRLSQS

[20] = target: Heat shock protein HSP 90-alpha (Homo sapiens, UniProt P07900); format: functional, organism-based
[21] = target: ATP-dependent molecular chaperone HSP82 (Candida albicans (strain WO-1) (Yeast), UniProt C4YTQ8); assay: loss of DOC-induced GRE-beta-galactosidase reporter signal, dose response, Hsp90 inhibitor project, S. cerevisiae, luminescence (AID 2400); format: functional, cell-based;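 note: beta-galactosidase luminescence from glucocorticoid response element reporter as proxy for Hsp90 function; inhibitor potency where signal loss means Hsp90 inhibition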
Chain of ATP-dependent molecular chaperone HSP82 (C4YTQ8 whole entry): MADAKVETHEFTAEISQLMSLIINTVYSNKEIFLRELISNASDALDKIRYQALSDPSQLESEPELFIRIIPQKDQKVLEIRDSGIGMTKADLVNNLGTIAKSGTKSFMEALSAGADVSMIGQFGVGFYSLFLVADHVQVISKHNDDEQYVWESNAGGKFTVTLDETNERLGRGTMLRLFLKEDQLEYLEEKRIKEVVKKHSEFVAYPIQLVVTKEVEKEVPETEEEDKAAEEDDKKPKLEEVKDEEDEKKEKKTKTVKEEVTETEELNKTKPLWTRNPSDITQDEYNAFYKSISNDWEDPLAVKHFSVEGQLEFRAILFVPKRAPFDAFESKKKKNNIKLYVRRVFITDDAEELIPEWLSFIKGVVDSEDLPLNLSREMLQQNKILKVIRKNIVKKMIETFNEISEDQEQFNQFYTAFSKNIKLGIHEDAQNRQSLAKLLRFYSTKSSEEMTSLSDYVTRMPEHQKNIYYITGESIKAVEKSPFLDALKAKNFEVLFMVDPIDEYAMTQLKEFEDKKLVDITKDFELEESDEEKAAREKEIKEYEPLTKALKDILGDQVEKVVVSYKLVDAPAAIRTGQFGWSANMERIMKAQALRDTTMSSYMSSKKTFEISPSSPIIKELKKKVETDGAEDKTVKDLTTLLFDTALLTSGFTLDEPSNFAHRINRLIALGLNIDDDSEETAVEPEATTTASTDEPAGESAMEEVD

CCCCOc1cc(NCc2ccccc2)c2ncn(C(C)C)c2c1
IC50 [1]: 12.2 µM (active) | IC50 [2]: 13.4 µM (active) | AC50 [3]: 17.3 µM (active) | AC50 [4]: 20.3 µM (active) | AC50 [5]: > 52 µM (inactive) | IC50 [6]: 12.9 µM (active) | AC50 (INS1): 8.11 µM (active)

Cc1ccc(NC(=O)N2CCC(O)(c3ccc(Cl)cc3)CC2)cc1
IC50 (Beta-galactosidase): > 80 µM (inactive)

O=C(c1ccco1)N1CCN(C(=O)C2CC(c3ccc(F)cc3)=NO2)CC1 (stereo unspecified)
EC50 [7]: > 100 µM (inactive)

Cc1nnc(NC(=O)c2ccc(S(=O)(=O)N3CCCCC3C)cc2)o1 (stereo unspecified)
AC50 [8]: 92.5 µM (active)

Cc1ccc(-c2cnc(N)n2C)cc1C
EC50 (Streptokinase A): 89.4 µM (active) | AC50 [8]: 71.8 µM (active) | EC50 [9]: 3.86 µM (active) | EC50 (Streptococcus): > 150 µM (not active)

CCN(CC(=O)NCc1cccs1)C(=O)/C=C/c1ccc(C)cc1
IC50 (Beta-galactosidase): > 80 µM (inactive)

O=C(c1ccc(-n2cccc2)cc1)N1CCN(Cc2ccccc2)CC1
IC50 (Beta-galactosidase): > 80 µM (inactive)

O=C(/C=C/c1ccc(Br)cc1)N1CCN(c2cccc(C(F)(F)F)c2)CC1
IC50 (Beta-galactosidase): > 80 µM (inactive)

N#Cc1ccc(OCC(=O)NCCCn2ccnc2)cc1
AC50 [8]: 95.7 µM (active)

CCOc1cc(/C=C2\CN(C)C/C(=C\c3ccc(O)c(OCC)c3)C2=O)ccc1O
EC50 [10]: 2.93 µM (active) | EC50 (BJ [11]): 0.571 µM (active) | EC50 (BJ [12]): 3.26 µM (inconclusive) | IC50 [13]: 38.9 µM (active) | EC50 (BJ [14]): 2.64 µM (inconclusive) | EC50 (BJ [15]): 4.94 µM (inconclusive)

Cc1ccc(C(=O)N2CCN(c3ccc(NC(=O)COc4ccccc4C)cc3)CC2)cc1
AC50 [16]: 15.2 µM (active) | AC50 [17]: 18.7 µM (active) | AC50 [18]: 30.9 µM (active)

O=C(COC(=O)c1ccco1)Nc1nnc(-c2ccccc2)o1
AC50 [8]: 133 µM (active)

CN(C)c1ccccc1-c1cc(NC=O)c2ncc(-c3cccc(C(F)(F)F)c3)n2c1
EC50 (Melanocortin receptor 4): > 89.2 µM (inactive)

COc1ccc(-c2cc(NC(C)=O)c3ncc(-c4ccccc4)n3c2)c(OC)c1
EC50 (Melanocortin receptor 4): > 89.2 µM (inactive)

O=CNc1cc(-c2ccsc2)cn2c(-c3ccccc3)cnc12
EC50 (Melanocortin receptor 4): > 89.2 µM (inactive)

CCOc1ccccc1NC(=O)CCS(=O)(=O)c1cc2c(cc1Br)CCN2C(=O)C1CC1
EC50 [7]: > 100 µM (inactive)

CC(=O)Nc1ccc(C(C)C)cc1
EC50 [7]: > 100 µM (inactive)

CC(=O)Nc1cc(-c2ccccc2)cn2c(-c3ccc(F)cc3)cnc12
EC50 (Melanocortin receptor 4): > 89.2 µM (inactive)

COc1ccc(S(=O)(=O)N2CCCCC2)cc1NC(=O)CCS(=O)(=O)c1ccc(C)cc1
EC50 [7]: > 100 µM (inactive)

C[C@@H]1CCCCO[C@H](CN(C)CC2CCCCC2)[C@H](C)CN([C@@H](C)CO)C(=O)c2cc(NC(=O)Nc3cccc4ccccc34)ccc2O1
AC50 [16]: 0.587 µM (active) | AC50 [17]: 11.1 µM (active) | AC50 [18]: 10.6 µM (active)

O=c1[nH]c(-c2ccccn2)nc(C(F)(F)F)c1Br
EC50 [19]: > 180 µM (inactive) | AC50 [20]: 4.03 µM (active) | EC50 [21]: 10.7 µM (active)
